Reference: patent US7405309B2, “Pyranone derivatives useful for treating cancer” (Centre National de la Recherche Scientifique (CNRS), priority 2004, dated 2008)

Legend:
[1] = test system: HCT-116 cells (colorectal carcinoma); experiment: Study of cytotoxicity on HCT-116 cells; type: cell-based; conditions: Homo sapiens, 96 hours of incubation, 37° C., read-out: concentration which induces the death of 50% of the cells (IC50)
Experimental: (§1) The biological activity of iodomethylene-dimethyl-dihydropyranone (I), as obtained according to Example 1, was studied in vitro on five different cell lines: • KB (epidermoid carcinoma of the nasopharynx) • HCT-116 (colorectal carcinoma) • K562 (myeloid leukemia) • K562-MDR1 (myeloid leukemia; resistance to doxorubicin) • MCF7-MDR1 (mammary adenocarcinoma; resistance to doxorubicin)
(§2) The cells selected for this study were incubated at 37° C. in the presence of iodomethylene-dimethyl-dihydropyranone (I) added to the culture medium at various concentrations. All the experiments carried out made it possible to determine the degree of toxicity of the test compound, its effect on the course of the cell cycle and its capacity to induce cell death by apoptosis.
(§3) The cytotoxicity of iodomethylene-dimethyl-dihydropyranone (I) was evaluated on KB and HCT-116 cells.

[2] = test system: KB cells (epidermoid carcinoma of the nasopharynx); experiment: Study of cytotoxicity on KB cells; type: cell-based; conditions: Homo sapiens, 96 hours of incubation, 37° C., read-out: concentration which induces the death of 50% of the cells (IC50)
Experimental: as §1, §2, §3

[3] = test system: K562 cells (myeloid leukemia); experiment: Morphology of treated K562 cells; type: cell-based; conditions: 10^−7 M, 24 hours
Experimental: as §1, §2
It should also be emphasized that from 24 hours onwards after the treatment with iodomethylene-dimethyl-dihydropyranone (I) at the dose of 10^−7 M, a change is observed in the morphology of the treated cells.

[4] = test system: K562 cells (myeloid leukemia); experiment: Study of the cell cycle by flow cytometry, K562; type: cell-based; conditions: significant after 24 hours at 10^−7 M
Experimental: as §1, §2
(§4) This effect is significant after 24 hours of exposure of the cells to iodomethylene-dimethyl-dihydropyranone (I) used at the concentration 10^−7 M (cf. FIG. 4: effect of (I) on the cell cycle of the leukemia cells K562).

[5] = test system: K562-MDR1 cells (myeloid leukemia; resistance to doxorubicin); experiment: Study of the cell cycle by flow cytometry, K562-MDR1; type: cell-based; conditions: significant after 24 hours at 10^−7 M
Experimental: as §1, §2, §4

[6] = test system: HCT116 cells (colorectal carcinoma); experiment: Study of the cell cycle by flow cytometry, HCT116; type: cell-based, human; conditions: significant after 24 hours at 10^−7 M
Experimental: as §1, §2, §4

[7] = test system: MCF7-MDR1 cells (mammary adenocarcinoma; resistance to doxorubicin); experiment: Study of the cell cycle by flow cytometry, MCF7-MDR1; type: cell-based; conditions: significant after 24 hours at 10^−7 M
Experimental: as §1, §2, §4

[8] = test system: K562-MDR1 cells (chemoresistant); experiment: Study of apoptosis, flow cytometry with annexin V / propidium iodide double labeling; type: cell-based; conditions: 24 hours, 10^−6 M and 10^−7 M
[9] = Maximum tolerated dose for a single intravenous injection; conditions: Swiss Nu/nu (nude), mouse, in vivo, Nude mice, survival and weight monitored up to day 21
Experimental: The iodomethylene-dimethyl-dihydropyranone (I), as obtained according to Example 1, was injected by the intravenous route (iv) to 4-5 week old Nude mice (Swiss Nu/nu) at the following doses: 50 mg/kg, 66.6 mg/kg, 100 mg/kg, 150 mg/kg and 200 mg/kg.

in vivo = conditions: Nude, mouse, iv
Experimental: Having determined the maximum tolerated dose for a single injection, the Nude mice were treated by the intravenous (iv) route with iodomethylene-dimethyl-dihydropyranone (I) injected at three different doses: 50, 70 and 90 mg/kg/injection. Each dose was administered 4 times at 3 day intervals (D0, D3, D6 and D9). The survival of the animals, their weight and clinical signs noted up to day 21 made it possible to establish the value of the maximum tolerated dose for four injections which is at less than 90 mg/kg. The 40, 60 and 80 mg/kg doses were therefore chosen for the evaluation of antitumor activity.

[10] = test system: HCT 116 tumor transplanted under the skin; experiment: Antitumor activity in Nude mice carrying a transplanted HCT 116 tumor; type: in vivo
Experimental: This antitumor activity of the compounds of the invention was studied on transplanted tumors (such as HCT-116) in Nude mice (nu/nu mice). Nude mice are immunodeficient mice having no thymus.
The xenotransplantation of human tumor cells in Nude mice is a model commonly used for the evaluation of the antitumor activity of various molecules.
The iodomethylene-dimethyl-dihydropyranone (I) was injected 4 times at 3 day intervals (D0, D3, D6 and D9). Two groups of control animals were formed. The first group received no injection (control), whereas the animals of the second group received injections of the solution which served to solubilize the iodomethylene-dimethyl-dihydropyranone (I) (vehicle).
The volume of the tumors (mm^3) was measured with a caliper twice per week.

CC1(C)OC(=O)C=C/C1=C\I [E-5-iodomethylene-6,6-dimethyl-5,6-dihydropyran-2-one]
IC50 [1]: ~300 nM | IC50 [2]: ~450 nM | change in the morphology of the treated cells [3]: the cells lose their round forms and become fusiform | effect on the cell cycle [4]: blocks cell division in all the lines at the G2/M phase | effect on the cell cycle [5]: blocks cell division in all the lines at the G2/M phase | effect on the cell cycle [6]: blocks cell division in all the lines at the G2/M phase | effect on the cell cycle [7]: blocks cell division in all the lines at the G2/M phase | induction of apoptosis (positive annexin V/negative PI cells) [8]: high induction of apoptosis | MTD at 21 day [9]: 100 mg/kg | MTD at 21 day (in vivo): < 90 mg/kg | tumor progression (tumor volume growth curves) ([10]; 80 mg/kg/injection iv, D0, D3, D6, D9, from the 2nd injection): significantly inhibits the tumor progression | percentage T/C (median tumor volume treated/control ×100) ([10]; 21 days after the start of the treatments, iv, 4 injections, dose not stated): 53.5%
